This passage reports MIC results from DBAASP.

Some test systems named below: Bacillus cereus; Escherichia coli; Klebsiella pneumoniae; Pseudomonas aeruginosa; Staphylococcus aureus; Bacillus subtilis; Salmonella typhimurium.
Common to all, as to assay: ≥ marks a high value that may be exact or a test limit, other limits are often not marked, values filed in µg/mL are converted to µM
Assay [1] deals with Candida albicans ATCC 10231.
The subject of assay [2] is Enterococcus faecalis ATCC 29212.
Assay [3] relates to Klebsiella pneumoniae ATCC 13883.
Assay [4] deals with Staphylococcus aureus ATCC 25923.
Assay [5] concerns Staphylococcus aureus ATCC 43300.
The subject of assay [6] is Staphylococcus epidermidis.
Assay [7] deals with Acinetobacter baumannii ATCC 19606.
In assay [8] the test system is Bacillus subtilis ATCC 23857.
For assay [9], the system named is Escherichia coli ATCC 25922.
Assay [10] relates to Klebsiella pneumoniae ATCC 700603.
For assay [11], the system named is Pseudomonas aeruginosa ATCC 27853.
For assay [12], the system named is Staphylococcus epidermidis ATCC 12228.
In assay [13] the test system is Pseudomonas aeruginosa PAO1.
The test system of assay [14] is Staphylococcus aureus USA 300.
Assay [15] concerns Pseudomonas aeruginosa ATCC 9027.
In assay [16] the test system is Staphylococcus aureus ATCC 33591.

≈ marks a conversion by molar mass, not a printed value.

A word on the MIC: it is the least concentration at which growth counts as inhibited. Read a low MIC as inhibition by little substance. For `CC[C@H](C)[C@H](NC(=O)CNC(=O)[C@H](CCCN=C(N)N)NC(=O)[C@H](C)NC(=O)[C@H](CCSC)NC(=O)[C@@H]1CCCN1C(=O)[C@H](C)NC(=O)CNC(=O)[C@H](CCC(=O)O)NC(=O)[C@H](CC(C)C)NC(=O)[C@@H]1CCCN1C(=O)[C@H](CC(=O)O)NC(=O)[C@H](Cc1ccccc1)NC(=O)[C@@H](N)CCCCN)C(=O)N[C@H](C(=O)N[C@@H](CC(C)C)C(=O)N[C@@H](CCC(=O)O)C(=O)N[C@@H](CCCCN)C(=O)N[C@H](C(=O)NCC(=O)O)C(C)C)C(C)C` [KFDPLEGAPMARGIVLEKVG], the values for the MIC in the assay on Bacillus cereus and against Escherichia coli were at least 120 µM and over 120 µM, respectively.
Consider `CC(C)[C@H](NC(=O)CNC(=O)[C@@H](N)Cc1cnc[nH]1)C(=O)N[C@@H](CO)C(=O)NCC(=O)N[C@@H](Cc1cnc[nH]1)C(=O)NCC(=O)N[C@@H](CCC(N)=O)C(=O)N[C@@H](Cc1cnc[nH]1)C(=O)NCC(=O)N[C@H](C(=O)N[C@@H](Cc1cnc[nH]1)C(=O)NCC(=O)O)C(C)C` [HGVSGHGQHGVHG], for which the MIC in assay [1] was over 101 µM; in assay [2], over 101 µM; in the assay with Escherichia coli it was 12.6 µM (≈ 16 µg/mL); in [3], 12.6 µM (≈ 16 µg/mL); against Klebsiella pneumoniae it was 12.6 µM (≈ 16 µg/mL); against Pseudomonas aeruginosa, 25.3 µM (≈ 32 µg/mL). The minimal inhibitory concentration (MIC) in assay [4] was 12.6 µM (≈ 16 µg/mL); in [5], over 101 µM; against Staphylococcus aureus, 50.6 µM (≈ 64 µg/mL); in assay [6] it was 25.3 µM (≈ 32 µg/mL).
Regarding `NCCCC[C@H](NC(=O)[C@H](CCCCN)NC(=O)[C@H](Cc1c[nH]c2ccccc12)NC(=O)[C@H](CCCN=C(N)N)NC(=O)[C@H](CCCCN)NC(=O)[C@H](Cc1c[nH]c2ccccc12)NC(=O)[C@H](Cc1c[nH]c2ccccc12)NC(=O)[C@@H](N)CCCCN)C(=O)N[C@@H](Cc1c[nH]c2ccccc12)C(=O)N[C@@H](Cc1c[nH]c2ccccc12)C(N)=O` [KWWKRWKKWW], the MIC in assay [7] stood at 8 µM (≈ 12.9 µg/mL); in assay [8] it was 4 µM (≈ 6.47 µg/mL); in assay [2], 16 µM (≈ 25.9 µg/mL); in [9] it was 16 µM (≈ 25.9 µg/mL); in assay [10], 16 µM (≈ 25.9 µg/mL); in [11], 8 µM (≈ 12.9 µg/mL). The MIC in assay [4] and in [12] was 8 µM (≈ 12.9 µg/mL) in each case.
On to `CC[C@H](C)[C@H](NC(=O)[C@@H](NC(=O)[C@H](C)NC(=O)[C@@H]1CCCN1C(=O)[C@H](Cc1ccccc1)NC(=O)[C@@H](NC(=O)[C@H](CCCCN)NC(=O)[C@H](CO)NC(=O)[C@H](C)NC(=O)[C@@H](NC(=O)[C@H](CCCN=C(N)N)NC(=O)CNC(=O)[C@@H](NC(=O)[C@@H](NC(=O)[C@@H]1CCCN1)C(C)C)C(C)C)C(C)C)C(C)C)C(C)C)C(=O)NCC(=O)N[C@@H](CC(C)C)C(=O)N[C@H](C(=O)N[C@@H](CCCCN)C(=O)N[C@@H](CCCCN)C(=O)O)C(C)C` [PVVGRVASKVFPAVIGLVKK], for which the MIC was at least 124 µM against Bacillus cereus and over 124 µM against Escherichia coli.
As to `CC(C)C[C@H](NC(=O)[C@H](CC(C)C)NC(=O)[C@H](CCCCN)NC(=O)[C@H](CC(C)C)NC(=O)CNC(=O)[C@H](CC(C)C)NC(=O)[C@H](CO)NC(=O)[C@H](CC(C)C)NC(=O)[C@H](CC(C)C)NC(=O)[C@H](CO)NC(=O)[C@H](CC(C)C)NC(=O)[C@H](CC(C)C)NC(=O)CN)C(N)=O` [GLLSLLSLGLKLL], the MIC was over 25 µM in assay [9], 25 µM (≈ 33.5 µg/mL) in assay [3], over 25 µM in assay [13] and 0.8 µM (≈ 1.07 µg/mL) in [14].
As to `CC(C)C[C@H](NC(=O)[C@H](C)NC(=O)[C@H](CCCCN)NC(=O)[C@H](CC(C)C)NC(=O)[C@H](CC(N)=O)NC(=O)[C@@H](N)CC(C)C)C(=O)N[C@@H](CC(C)C)C(=O)N[C@@H](C)C(=O)N[C@H](C(=O)N[C@@H](C)C(=O)N[C@@H](CCCCN)C(N)=O)C(C)C` [LNLKALLAVAK], the MIC in [8] is at least 128 µM; in assay [9] it was over 128 µM; in assay [10] it was over 128 µM; in assay [15] it was over 128 µM; in assay [4], over 128 µM.
`CC(C)[C@H](NC(=O)CNC(=O)[C@H](CCCN=C(N)N)NC(=O)[C@@H](NC(=O)[C@@H](NC(=O)[C@@H](NC(=O)[C@H](CCCN=C(N)N)NC(=O)CNC(=O)[C@@H](NC(=O)[C@H](CCCN=C(N)N)NC(=O)[C@@H](NC(=O)[C@@H](NC(=O)[C@@H](NC(=O)CN)C(C)C)C(C)C)C(C)C)C(C)C)C(C)C)C(C)C)C(C)C)C(=O)N[C@@H](CCCN=C(N)N)C(=O)N[C@@H](CCCN=C(N)N)C(N)=O` [GVVVRVGRVVVRGVRR]: the MIC came to 8 µM (≈ 14.1 µg/mL) in the assay with Bacillus subtilis, 8 µM (≈ 14.1 µg/mL) with Escherichia coli, 8 µM (≈ 14.1 µg/mL) against Salmonella typhimurium and 16 µM (≈ 28.2 µg/mL) in the assay with Staphylococcus aureus.
For the compound `NC(=O)[C@H](CCCN=C(N)N)NC(=O)[C@H](CCCN=C(N)N)NC(=O)[C@H](Cc1ccccc1)NC(=O)[C@H](Cc1ccccc1)NC(=O)[C@H](CCCN=C(N)N)NC(=O)[C@H](CCCN=C(N)N)NC(=O)[C@H](Cc1ccccc1)NC(=O)[C@@H](N)Cc1ccccc1` [FFRRFFRR], the MIC was at least 102 µM in assay [8] and over 406 µM in assay [1].
Regarding `C[C@@H](O)[C@H](NC(=O)[C@H](CCCN=C(N)N)NC(=O)[C@H](CCCN=C(N)N)NC(=O)[C@H](CCCN=C(N)N)NC(=O)[C@@H]1CCCN1C(=O)[C@@H](N)CO)C(=O)N1CCC[C@H]1C(=O)N[C@@H](CO)C(=O)N1CCC[C@H]1C(=O)N[C@@H](CCCN=C(N)N)C(=O)N[C@@H](CCCN=C(N)N)C(=O)N[C@@H](CCCN=C(N)N)C(=O)N[C@@H](CCCN=C(N)N)C(=O)N[C@@H](CO)C(=O)N[C@@H](CCC(N)=O)C(=O)N[C@@H](CO)C(=O)N1CCC[C@H]1C(=O)N[C@@H](CCCN=C(N)N)C(=O)N[C@@H](CCCN=C(N)N)C(=O)N[C@@H](CCCN=C(N)N)C(N)=O` [SPRRRTPSPRRRRSQSPRRR], the MIC in assay [9] is 25 µM (≈ 63.6 µg/mL); in [11] it was 100 µM (≈ 254 µg/mL); in assay [4] it was over 100 µM; in assay [16] it was at least 100 µM.
Consider `C[C@H](NC(=O)[C@H](C)NC(=O)[C@@H](NC(=O)[C@H](CCCCN)NC(=O)[C@H](C)NC(=O)[C@H](CCCN=C(N)N)NC(=O)[C@H](CCCCN)NC(=O)[C@H](C)NC(=O)[C@H](C)NC(=O)CN)[C@@H](C)O)C(N)=O` [GAAKRAKTAA], for which the MIC in [7] was over 512 µM; in [8] it was at least 512 µM; in [2], over 512 µM; in assay [9], over 512 µM; in assay [10] it was over 512 µM; in assay [11], over 512 µM. Besides, the MIC in assay [4] and in assay [12] was over 512 µM each time.
`CC[C@H](C)[C@H](NC(=O)[C@H](CCCN=C(N)N)NC(=O)[C@H](CCCCN)NC(=O)[C@H](Cc1ccccc1)NC(=O)[C@H](Cc1c[nH]c2ccccc12)NC(=O)CN)C(=O)N[C@@H](CCCCN)C(=O)N[C@H](C(=O)N[C@@H](Cc1ccccc1)C(=O)N[C@@H](Cc1c[nH]c2ccccc12)C(N)=O)[C@@H](C)O` [GWFKRIKTFW]: the MIC in assay [7] was 64 µM (≈ 87.5 µg/mL); in [8], 4 µM (≈ 5.47 µg/mL); in assay [2], 64 µM (≈ 87.5 µg/mL); in assay [9], 16 µM (≈ 21.9 µg/mL); in assay [10], 32 µM (≈ 43.8 µg/mL); in assay [11] it was 8 µM (≈ 10.9 µg/mL). The results for the MIC in assay [4] and in assay [12] were 16 µM (≈ 21.9 µg/mL) and 4 µM (≈ 5.47 µg/mL), respectively.
For `CC[C@H](C)[C@H](NC(=O)[C@H](Cc1ccc(O)cc1)NC(=O)[C@@H](NC(=O)[C@@H](NC(=O)[C@H](C)NC(=O)[C@@H]1CCCN1C(=O)[C@@H](NC(=O)[C@H](CO)NC(=O)[C@H](CS)NC(=O)[C@H](CCCCN)NC(=O)[C@@H](NC(=O)[C@H](CCCCN)NC(=O)[C@@H](N)C(C)C)[C@@H](C)O)C(C)C)C(C)C)C(C)C)C(=O)N[C@@H](CC(C)C)C(=O)N[C@H](C(=O)N[C@@H](CCCCN)C(=O)N[C@H](C(=O)N[C@@H](Cc1ccccc1)C(=O)N[C@@H](CCCCN)C(=O)N[C@@H](CO)C(=O)O)[C@@H](C)O)C(C)C` [VKTKCSVPAVVYILVKTFKS], the MIC is at least 116 µM against Bacillus cereus and over 116 µM in the assay on Escherichia coli.
